Laboratory results: ChEMBL document CHEMBL4396870, “Pharmacological Chaperones for the Treatment of α-Mannosidosis” (J Med Chem, 2019)
The source made the active and inactive calls. No cut-off for these calls is given here.

Legend:
[1] = biological target: Beta-galactosidase (Escherichia coli) (UniProt Q8VNN2); experiment: Inhibition of Escherichia coli beta-galactosidase assessed as residual hydrolytic activity up to 2 mM after 10 to 30 mins by spectrophotometric analysis
Saccharomyces cerevisiae [2] = experiment: Inhibition of yeast alpha-glucosidase assessed as residual hydrolytic activity up to 2 mM after 10 to 30 mins by spectrophotometric analysis
[3] = biological target: Alpha-galactosidase (Coffea arabica) (UniProt Q42656); experiment: Inhibition of green coffee alpha-galactosidase assessed as residual hydrolytic activity up to 2 mM after 10 to 30 mins by spectrophotometric analysis
Helix pomatia = experiment: Inhibition of Helix pomatia beta-mannosidase assessed as residual hydrolytic activity up to 2 mM after 10 to 30 mins by spectrophotometric analysis
Saccharomyces cerevisiae [4] = experiment: Inhibition of yeast isomaltase assessed as residual hydrolytic activity up to 2 mM after 10 to 30 mins by spectrophotometric analysis
Aspergillus niger = experiment: Inhibition of Aspergillus niger amyloglucosidase assessed as residual hydrolytic activity up to 2 mM after 10 to 30 mins by spectrophotometric analysis
[5] = Inhibition of Helix pomatia beta-mannosidase assessed as residual hydrolytic activity after 10 to 30 mins by spectrophotometric analysis; conditions: read-out: Ki
Alpha-mannosidase = biological target: T1, Alpha-mannosidase (Canavalia ensiformis, UniProt C0HJB3); experiment: Inhibition of jack bean Lysosomal alpha-mannosidase assessed as residual hydrolytic activity after 10 to 30 mins by spectrophotometric analysis
T1 sequence (C0HJB3 whole entry): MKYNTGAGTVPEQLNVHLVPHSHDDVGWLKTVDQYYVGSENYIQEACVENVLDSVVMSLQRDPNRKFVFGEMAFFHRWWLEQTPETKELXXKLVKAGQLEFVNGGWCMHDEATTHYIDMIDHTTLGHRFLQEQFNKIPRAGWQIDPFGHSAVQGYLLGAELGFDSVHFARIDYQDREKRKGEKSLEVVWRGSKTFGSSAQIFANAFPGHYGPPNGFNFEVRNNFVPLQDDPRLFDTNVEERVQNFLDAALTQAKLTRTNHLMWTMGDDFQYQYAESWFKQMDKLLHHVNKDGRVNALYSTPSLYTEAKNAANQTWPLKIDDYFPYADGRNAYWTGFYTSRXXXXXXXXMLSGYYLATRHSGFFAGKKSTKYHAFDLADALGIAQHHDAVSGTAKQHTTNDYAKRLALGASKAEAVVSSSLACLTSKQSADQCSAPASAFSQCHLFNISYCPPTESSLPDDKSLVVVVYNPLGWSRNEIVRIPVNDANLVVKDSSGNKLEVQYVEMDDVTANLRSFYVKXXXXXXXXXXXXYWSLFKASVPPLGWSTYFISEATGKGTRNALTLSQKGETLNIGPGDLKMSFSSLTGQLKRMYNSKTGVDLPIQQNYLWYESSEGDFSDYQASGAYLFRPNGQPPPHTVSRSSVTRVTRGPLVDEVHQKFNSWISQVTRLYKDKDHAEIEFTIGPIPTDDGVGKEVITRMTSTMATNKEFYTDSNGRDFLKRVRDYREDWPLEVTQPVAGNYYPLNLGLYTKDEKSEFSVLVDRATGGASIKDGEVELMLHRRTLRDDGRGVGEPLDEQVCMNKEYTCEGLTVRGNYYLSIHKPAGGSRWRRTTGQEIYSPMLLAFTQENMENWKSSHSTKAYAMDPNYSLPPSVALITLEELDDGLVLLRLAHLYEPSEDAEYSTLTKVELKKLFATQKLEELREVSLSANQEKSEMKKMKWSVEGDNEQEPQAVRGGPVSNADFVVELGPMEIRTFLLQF

[6] = Inhibition of bovine liver beta-glucosidase assessed as residual hydrolytic activity after 10 to 30 mins by spectrophotometric analysis; parameters: species or system Bos taurus
[7] = Inhibition of almond beta-glucosidase assessed as residual hydrolytic activity after 10 to 30 mins by spectrophotometric analysis; parameters: species or system Prunus dulcis

Sequence of Alpha-galactosidase (Coffea arabica) (Q42656 16-378 limits assumed): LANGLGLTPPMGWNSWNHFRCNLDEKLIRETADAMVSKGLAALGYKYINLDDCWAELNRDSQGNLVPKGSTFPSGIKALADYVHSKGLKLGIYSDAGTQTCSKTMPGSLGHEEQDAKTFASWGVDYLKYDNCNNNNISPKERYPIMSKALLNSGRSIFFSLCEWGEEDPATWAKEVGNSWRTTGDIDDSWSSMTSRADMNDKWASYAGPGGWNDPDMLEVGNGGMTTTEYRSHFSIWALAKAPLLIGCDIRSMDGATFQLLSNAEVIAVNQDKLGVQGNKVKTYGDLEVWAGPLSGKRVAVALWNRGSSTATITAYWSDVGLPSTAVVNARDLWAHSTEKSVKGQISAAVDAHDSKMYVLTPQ
Sequence of Beta-galactosidase (Escherichia coli) (Q8VNN2 whole entry, looked up): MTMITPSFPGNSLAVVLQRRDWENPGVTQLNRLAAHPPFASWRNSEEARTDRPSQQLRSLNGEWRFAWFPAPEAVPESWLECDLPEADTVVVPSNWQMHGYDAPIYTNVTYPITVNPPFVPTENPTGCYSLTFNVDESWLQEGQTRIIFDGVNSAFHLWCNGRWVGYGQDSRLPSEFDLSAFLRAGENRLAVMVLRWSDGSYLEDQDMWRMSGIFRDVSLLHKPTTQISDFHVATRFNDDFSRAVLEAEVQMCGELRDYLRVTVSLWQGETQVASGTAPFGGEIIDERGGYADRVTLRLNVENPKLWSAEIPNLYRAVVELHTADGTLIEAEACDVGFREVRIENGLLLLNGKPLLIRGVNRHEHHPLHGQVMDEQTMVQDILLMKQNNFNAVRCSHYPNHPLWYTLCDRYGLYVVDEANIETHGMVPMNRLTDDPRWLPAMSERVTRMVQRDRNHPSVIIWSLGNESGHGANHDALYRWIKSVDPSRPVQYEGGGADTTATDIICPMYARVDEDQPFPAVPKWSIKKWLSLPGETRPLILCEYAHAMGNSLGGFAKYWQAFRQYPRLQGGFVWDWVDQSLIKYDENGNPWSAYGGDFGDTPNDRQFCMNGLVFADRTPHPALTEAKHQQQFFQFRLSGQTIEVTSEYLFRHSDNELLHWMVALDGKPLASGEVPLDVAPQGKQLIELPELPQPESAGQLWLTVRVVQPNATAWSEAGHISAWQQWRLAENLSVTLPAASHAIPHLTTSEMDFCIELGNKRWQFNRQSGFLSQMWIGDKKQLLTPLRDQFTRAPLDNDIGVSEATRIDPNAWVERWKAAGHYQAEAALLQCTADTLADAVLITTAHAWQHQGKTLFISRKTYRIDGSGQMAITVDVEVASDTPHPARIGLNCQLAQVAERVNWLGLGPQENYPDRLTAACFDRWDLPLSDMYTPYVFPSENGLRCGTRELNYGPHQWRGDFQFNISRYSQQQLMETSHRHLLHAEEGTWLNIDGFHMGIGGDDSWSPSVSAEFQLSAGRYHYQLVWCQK

inhibition [1]	inhibition (Saccharomyces cerevisiae [2])	inhibition [3]	Activity (Helix pomatia)	inhibition (Saccharomyces cerevisiae [4])	inhibition (Aspergillus niger)	Compound	Ki [5] [µM]	Ki (Alpha-mannosidase) [µM]	Ki [6] [µM]	Ki [7] [µM]
Active	Active	Active	Active	Active	Active	O=C1OC[C@@H]2[C@@H](O)[C@H](O)[C@H](O)[C@@H](NCCCCCCn3cc(COC[C@H]4O[C@@H]5O[C@H]6[C@H](O)[C@@H](OCc7cn(CCCCCCN[C@@H]8[C@@H](O)[C@@H](O)[C@H](O)[C@H]9COC(=O)N98)nn7)[C@@H](O[C@H]7[C@H](O)[C@@H](OCc8cn(CCCCCCN[C@@H]9[C@@H](O)[C@@H](O)[C@H](O)[C@H]%10COC(=O)N%109)nn8)[C@@H](O[C@H]8[C@H](O)[C@@H](OCc9cn(CCCCCCN[C@@H]%10[C@@H](O)[C@@H](O)[C@H](O)[C@H]%11COC(=O)N%11%10)nn9)[C@@H](O[C@H]9[C@H](O)[C@@H](OCc%10cn(CCCCCCN[C@@H]%11[C@@H](O)[C@@H](O)[C@H](O)[C@H]%12COC(=O)N%12%11)nn%10)[C@@H](O[C@H]%10[C@H](O)[C@@H](OCc%11cn(CCCCCCN[C@@H]%12[C@@H](O)[C@@H](O)[C@H](O)[C@H]%13COC(=O)N%13%12)nn%11)[C@@H](O[C@H]%11[C@H](O)[C@@H](OCc%12cn(CCCCCCN[C@@H]%13[C@@H](O)[C@@H](O)[C@H](O)[C@H]%14COC(=O)N%14%13)nn%12)[C@@H](O[C@H]4[C@H](O)[C@H]5OCc4cn(CCCCCCN[C@@H]5[C@@H](O)[C@@H](O)[C@H](O)[C@H]%12COC(=O)N%125)nn4)O[C@@H]%11COCc4cn(CCCCCCN[C@@H]5[C@@H](O)[C@@H](O)[C@H](O)[C@H]%11COC(=O)N%115)nn4)O[C@@H]%10COCc4cn(CCCCCCN[C@@H]5[C@@H](O)[C@@H](O)[C@H](O)[C@H]%10COC(=O)N%105)nn4)O[C@@H]9COCc4cn(CCCCCCN[C@@H]5[C@@H](O)[C@@H](O)[C@H](O)[C@H]9COC(=O)N95)nn4)O[C@@H]8COCc4cn(CCCCCCN[C@@H]5[C@@H](O)[C@@H](O)[C@H](O)[C@H]8COC(=O)N85)nn4)O[C@@H]7COCc4cn(CCCCCCN[C@@H]5[C@@H](O)[C@@H](O)[C@H](O)[C@H]7COC(=O)N75)nn4)O[C@@H]6COCc4cn(CCCCCCN[C@@H]5[C@@H](O)[C@@H](O)[C@H](O)[C@H]6COC(=O)N65)nn4)nn3)N12	–	–	–	–
–	–	–	–	–	–	N[C@@H]1[C@@H](O)[C@@H](O)[C@H](O)[C@H]2COC(=O)N12	20 to 200	7	20 to 200	20 to 200
